Test results reported in US20090227503A1, “PARATHYROID HORMONE TREATMENT FOR ENHANCED ALLOGRAFT AND TISSUE-ENGINEERED RECONSTRUCTION OF BONE DEFECTS” (UNIVERSITY OF ROCHESTER, priority 2008, published 2009).

Legend:
grafted femurs = experiment: Torsion testing of grafted femurs (Example 4); assay type: in vivo, mice
Experimental: (§1) Four-mm long bone allografts were harvested from donor mice, and were processed and implanted into intecalary defects 195 in the femur of other mice and secured in place using a stainless steel intramedullary pin 190, as shown in FIG. 13. One week after surgery, daily injections of 40 μg/kg hrPTH (1-34) (Lilly, Inc., Indianapolis, Ind.) were initiated in half of the mice, while the others received injections of saline control. Weekly x-rays were taken to monitor progression (Faxitron X-Ray LLC, Wheeling, Ill.).
(§2) One cohort of the study groups used 14 mice from each treatment (PTH and control) for imaging and mechanical material testing and were sacrificed 6 weeks after surgery. Each femur was harvested by disarticulating the hip and knee and removing the intramedullary stainless-steel pin. Specimens were moistened with saline and frozen at −20° C. until thawed for micro-CT imaging and torsion testing. Specimens were scanned at […] isotropic resolution using the Scanco VivaCT 40 (Scanco Medical AG, Bassersdorf, Switzerland). From these 3D images, the graft and callus bone volumes (BVGraft, BVCallus) were measured by manual segmentation, followed by standardized thresholding at a grayscale corresponding to 750 mgHA/cm^3. The cross-sectional polar moment of inertias (PMI) were computed for each slice throughout the grafted region and the maximum, minimum and average PMI (PMIMax, PMIMin, PMIAve) were investigated to determine their contribution to the biomechanics of the grafted femurs.
(§3) The Union Ratio was also calculated. The Union Ratio measures the graft surface area upon which mineralized callus has formed. If the voxels adjacent to the graft surface are boney callus, the area of that region of the graft is measured and normalized to the total graft surface area. Imaging data (not shown) indicated the bare surface of the graft in blue, with regions of union to the callus depicted as red. Each half (proximal and distal) of the graft was evaluated separately and the lesser ratio of union area to total graft surface area was given as the Union Ratio for that specimen. Callus formation that bridged from host-to-host over the graft was determined by evaluating serial axial cross sections from micro-CT images and given a binary result. These samples were then mechanically tested in torsion. Yield torque (TYield), ultimate torque (TUlt), torsional rigidity (TR), toughness (or work to failure) and the twist at ultimate torque were determined for each specimen. Finally, the mode of failure for each specimen was determined using an x-ray image analysis (not shown).

femoral allograft = experiment: Mouse femoral allograft, micro-CT of callus (Example 1); assay type: in vivo, C57B1/6 mice
Experimental: Femoral allograft surgeries were performed on C57B1/6 mice as previously described. Briefly, a 4 mm mid-diaphyseal segment was removed by osteotomizing the femur and a processed allograft was implanted and secured in place with a stainless steel intramedullary (IM) pin. After 1 week, 8 mice were given daily subcutaneously injections of 0.4 mg/kg PTH (1-34) (Forteo, Eli Lilly and Company, Indianapolis, Ind.) while 5 mice with grafts were given the same volume of saline daily, serving as controls. Animals were sacrificed 6 weeks after surgery, the grafted femurs were carefully dissected and cleaned without disrupting the callus, and the IM pin was carefully removed. The femurs were then stored frozen at −80° C. until evaluation. Specimens were scanned at 10.5 micron isotropic resolution using a Scanco VivaCT 40 (Scanco Medical AG, Bassersdorf, Switzerland). Callus bone volume adjacent to the graft was manually segmented from all axial slices that contained grafted bone. The mineralized callus volume, callus bone mineral density (BMD) and total mineral content (BMC) were determined.

[1] = system: intact contralateral femurs; experiment: Micro-CT of intact contralateral femurs (Example 4); assay type: in vivo, mice; settings: 6 weeks
[2] = system: callus vasculature of grafted femurs; experiment: Callus vascularization by micro-CT after vascular perfusion (Example 4); assay type: in vivo, mice; settings: for vessel volume within callus, more in saline treated than PTH treated specimens: not significant, n=4 per group
Experimental: A second cohort of 16 animals underwent the same surgery with sacrifice of 8 animals at 4 weeks and 8 animals at 6 weeks post-surgery to evaluate the degree of vascularization of the graft and callus region using vascular profusion as described previously (Duvall 2004). Half of the animals were treated with PTH, and the other half with saline.
On the day of sacrifice, animals were injected with a fatal dose of ketamine and xylazine and their vasculature was perfused using a syringe pump through a needle placed into the left ventricle of the heart. The right atrium was also punctured to allow the blood to drain out. They were first perfused with heparinized (100 units/ml) saline to prevent blood clotting, followed by 10% neutral-buffered formalin, and lastly with lead-chromate contrast agent (Microfil 122, Flow Tech, Inc. Carver, Mass.). Samples were fixed in 10% formalin overnight followed by harvest of the femur and pin extraction. Samples were micro-CT scanned once after fixation, and again after EDTA decalcification. Using both scans the vasculature was evaluated within the mineralized callus. The vessel volume, thickness, spacing and vessel number was determined.

[3] = system: contralateral intact femurs; experiment: Torsion testing of contralateral intact femurs (Example 4); assay type: in vivo, mice
Experimental: as §1, §2, §3

[4] = PTH Graft, 6 weeks after implantation, mean
[5] = 0.4 mg/kg PTH (1-34) s.c. daily from week 1, 6 weeks after surgery, Mean (Standard Deviation)
[6] = vs saline, 6 weeks after surgery
[7] = PTH contralateral femur, mean, N = 8

CC[C@H](C)[C@H](NC(=O)[C@H](CCC(=O)O)NC(=O)[C@H](CO)NC(=O)[C@@H](NC(=O)[C@@H](N)CO)C(C)C)C(=O)N[C@@H](CCC(N)=O)C(=O)N[C@@H](CC(C)C)C(=O)N[C@@H](CCSC)C(=O)N[C@@H](Cc1cnc[nH]1)C(=O)N[C@@H](CC(N)=O)C(=O)N[C@@H](CC(C)C)C(=O)NCC(=O)N[C@@H](CCCCN)C(=O)N[C@@H](Cc1cnc[nH]1)C(=O)N[C@@H](CC(C)C)C(=O)N[C@@H](CC(N)=O)C(=O)N[C@@H](CO)C(=O)N[C@@H](CCSC)C(=O)N[C@@H](CCC(=O)O)C(=O)N[C@@H](CCCN=C(N)N)C(=O)N[C@H](C(=O)N[C@@H](CCC(=O)O)C(=O)N[C@@H](Cc1c[nH]c2ccccc12)C(=O)N[C@@H](CC(C)C)C(=O)N[C@@H](CCCN=C(N)N)C(=O)N[C@@H](CCCCN)C(=O)N[C@@H](CCCCN)C(=O)N[C@@H](CC(C)C)C(=O)N[C@@H](CCC(N)=O)C(=O)N[C@@H](CC(=O)O)C(=O)N[C@H](C(=O)N[C@@H](Cc1cnc[nH]1)C(=O)N[C@@H](CC(N)=O)C(=O)N[C@@H](Cc1ccccc1)C(=O)O)C(C)C)C(C)C [PTH, PTH (1-34)]
Grafted femur mode of failure after torsion testing: Early Union (number of femurs) (grafted femurs; 6 weeks): 3 | Grafted femur mode of failure after torsion testing: Mature Union (number of femurs) (grafted femurs; 6 weeks): 3 | Grafted femur mode of failure after torsion testing: Pre-Union (number of femurs) (grafted femurs; 6 weeks): 8 | rate of twist at TUlt as fraction of control grafted specimens (grafted femurs; 6 weeks): ⅓ | TR (grafted femurs; [4]): 1175 N*mm^2/Rad | Tult (grafted femurs; [4]): 13.2 N*mm | Twist at Tult (grafted femurs; [4]): 0.020 Rad/mm | Tyield (grafted femurs; [4]): 10.5 N*mm | Work to TUlt (grafted femurs; [4]): 0.167 Nmm*Rad/mm | Work to TYield (grafted femurs; [4]): 0.0687 Nmm*Rad/mm | specimens that failed in a manner not simply graft-pullout from the host (grafted femurs; saline only 3, not statistically significant): Six | Yield Torque, greater by (grafted femurs; vs saline grafted femurs, 6 weeks): 72% | Ultimate Torque, greater by (grafted femurs; vs saline grafted femurs, 6 weeks, not significant): 23% | torsional rigidity of grafted femurs (grafted femurs; vs saline, 6 weeks): doubled | Callus BMC (femoral allograft; [5]): 2.77 (0.53) mg HA | Callus BMD (femoral allograft; [5]): 665 (17) mg HA/cm^3 | Callus Bone Volume (femoral allograft; [5]): 4.17 (0.80) mm^3 | samples with callus bridging the graft from host to host (femoral allograft; 6 weeks after surgery, saline 20%): 63% | increase in callus bone volume (femoral allograft; [6]): 1.9 fold | net increase in total callus mineral content (femoral allograft; [6]): 60% | reduction in callus BMD (femoral allograft; [6]): 13% | contralateral intact femur's diaphyseal BMCPTH:BMCSaline [1]: 1.17 | A-P Periosteal Diameter [1, 7]: 1.30 mm | Cortical Bone Density [1, 7]: 1179 mgHA/cc | Cortical Thickness [1, 7]: 0.199 mm | Cross-Sectional Area [1, 7]: 0.82 mm² | M-L Periosteal Diameter [1, 7]: 1.85 mm | Polar Moment of Inertia [1, 7]: 0.36 mm^4 | vessel volume within callus, more in saline treated than PTH treated specimens ([2]; 4 weeks): 74% | blood vessel diameter, greater in saline treated than PTH treated specimens ([2]; 4 weeks, p=0.05): 55% | blood vessel diameter, greater in saline treated than PTH treated specimens ([2]; 6 weeks): 78% | vessel volume within callus, more in saline treated than PTH treated specimens ([2]; 6 weeks): 88% | specimens in which the intramedullary blood vessel had bridged the length of the graft ([2]; by 6 weeks, saline 3 of 4): 4 of 4 | torsional mechanics of intact contralateral femurs ([3]; 6 weeks of PTH treatment): did not show a significant increase in torsional mechanics | TR ([3]; PTH Contra, 6 weeks, mean): 1284 N*mm^2/Rad | Tult ([3]; PTH Contra, 6 weeks, mean): 22.6 N*mm | Twist at Tult ([3]; PTH Contra, 6 weeks, mean): 0.029 Rad/mm | Tyield ([3]; PTH Contra, 6 weeks, mean): 15.1 N*mm | Work to TUlt ([3]; PTH Contra, 6 weeks, mean): 0.401 Nmm*Rad/mm | Work to TYield ([3]; PTH Contra, 6 weeks, mean): 0.151 Nmm*Rad/mm
